# Measured values reported in patent US5914314A (priority 1989, dated 1999).
# Tests used:
# [1] = Case XXVIII: carcinoma of the ovary, 40 kg; 120-200 mg LASIX intravenously
# [2] = following intravenous administration; cited from earlier work
# [3] = topical application to scalp, hair growth; type: in vivo, human; settings: Case XXX: balding patient; topically to scalp
# Description: This patient was diagnosed in January, 1990. A gastric resection and colonic replacement of oesophagus (for swallowing) was performed. They had also developed an intraperitoneal tumor. They were given chemotherapy and lost their hair. […] Dr. Falk saw this patient on Jun.
# This balding patient applied the product "minoxidil" sold under the trademark "ROGAINE" topically to their scalp.
# tumor = settings: injected directly into a tumor
# [4] = tested on: Grafts from ACI strain rats (black) to Lewis Strain rats (white); assay: standard rat skin graft rejection model; type: in vivo; settings: hyaluronic acid added to cyclosporin
# [5] = side effects / toxicity in human patients; type: in vivo; settings: 10 to 1000 mg/70 kg person
compound,measurement,setting,value
"NS(=O)(=O)c1cc(C(=O)O)c(NCc2ccco2)cc1Cl [LASIX, furosemide]",total volume of urine over 48 hours,[1],"2,450 ml"
same,duration of action,[2],about 2 hours
same,onset of diuresis,[2],≤ 30 min
"Nc1cc(N2CCCCC2)nc(N)[n+]1[O-] [ROGAINE, minoxidil]",hair growth,[3],minimal or little hair growth
CCO [ethyl alcohol],"dispersion in tumor, sonographic (ultrasound) assessment",tumor,not dispersed throughout the tumor
hyaluronic acid,cyclosporin induced graft survival,[4],significantly increased cyclosporin induced graft survival
same,toxicity,[5],no toxicity
